# Laboratory results: patent US9290476B2, “Methylene linked quinolinyl modulators of RORγt” (Janssen Pharmaceutica NV, priority 2012, dated 2016)
# Where a name gives a salt, the structure may show the parent alone.
# Key:
# human RORγt LBD = human RORγt LBD (Homo sapiens (Human), UniProt P51449); test: RORγt reporter assay (GAL4-RORγt LBD luciferase in HEK293T cells); format: cell-based; settings: for RORγt reporter Assay, % inhibition @ 6 μM / IC50: HEK293T cells; for IC50: 24 hours compound treatment; for inhibition at 6 µM: HEK-293T, read-out: RORγt reporter Assay, % inhibition @ 6 μM, HEK293T cells, 6 μM
# human RORγt LBD, sequence (P51449 258-518): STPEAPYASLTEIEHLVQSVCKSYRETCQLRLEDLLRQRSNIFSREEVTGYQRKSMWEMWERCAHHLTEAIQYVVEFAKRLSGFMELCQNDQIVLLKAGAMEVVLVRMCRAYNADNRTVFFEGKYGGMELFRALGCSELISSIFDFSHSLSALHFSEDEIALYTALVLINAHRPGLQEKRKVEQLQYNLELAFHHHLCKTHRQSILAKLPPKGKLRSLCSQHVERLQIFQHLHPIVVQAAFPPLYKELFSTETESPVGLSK
# Text: A reporter assay was used to test functional activity of RORγt modulatory compounds on transcriptional activation driven by the RORγt LBD. Cells used in the assay were co-transfected with two constructs. The first construct, pBIND-RORγt LBD, contained the wild type human RORγt LBD fused to the DNA binding domain of the GAL4 protein. The second construct, pGL4.31 (Promega Cat no. C935A), contained multiple GAL4 responsive DNA elements upstream of firefly luciferase. […] The mutant construct was called pBIND-RORγt-AF2.
# The pBIND vector contains the GAL4 DNA Binding Domain (GAL4 DBD) and the renilla luciferase gene under control of the SV40 promoter. Renilla luciferase expression serves as a control for transfection efficiency and cell viability.
# The reporter assay was performed by transiently transfecting HEK293T cells with 5 ng of pBIND-RORγt LBD or pBIND-RORγt LBD-AF2 and 5 μg pGL4.31 (Promega Cat no. C935A) using Fugene 6 ([…] Cat no. E2691) at a 1:6 ratio of DNA: Fugene 6 in a T-75 flask in which cells were at least 80% confluent. Twenty four hours after bulk transfection, cells were plated into 96-well plates at 50,000 cells/well in phenol-red free DMEM containing 5% Lipid Reduced FCS and Pen/Strep. Six hours after plating, cells were treated with compounds for 24 hours. Media was removed and cells were lysed with 50 μL 1× Glo Lysis Buffer (Promega). Dual Glo Luciferase Reagent (50 μL/well) was then added and firefly luciferase luminescence was read on an Envision after a ten minute incubation. Finally, Stop and Glo reagent (50 μL/well) was added and renilla luciferase luminescence was read on an Envision after a ten minute incubation. To calculate the effect of compounds on RORγt activity, the ratio of firefly to renilla luciferase was determined and plotted against compound concentration. Agonist compounds increase RORγt-driven luciferase expression, and antagonist or inverse agonist compounds decrease luciferase expression.
# [1] = biological target: human RORγt ligand binding domain (RORγt LBD) (Homo sapiens (Human), UniProt P51449); test: RORγt ThermoFluor assay (thermal shift binding affinity); settings: estimated from thermal shift
# human RORγt ligand binding domain (RORγt LBD), sequence (P51449 other isoform, or with tags, fused parts or gaps): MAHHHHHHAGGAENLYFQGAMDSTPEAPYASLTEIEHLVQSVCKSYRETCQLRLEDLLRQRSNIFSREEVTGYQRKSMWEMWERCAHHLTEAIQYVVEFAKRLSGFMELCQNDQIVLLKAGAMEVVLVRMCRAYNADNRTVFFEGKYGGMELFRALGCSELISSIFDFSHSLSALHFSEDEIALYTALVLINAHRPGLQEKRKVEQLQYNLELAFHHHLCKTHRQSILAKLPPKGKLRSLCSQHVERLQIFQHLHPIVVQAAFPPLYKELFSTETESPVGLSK
# Procedure: This approach is applicable to a wide variety of systems, and rigorous in theoretical interpretation through quantitation of equilibrium binding constants (KD).
# The shift in the melting point described as a ΔTm is proportional to the concentration and affinity of the ligand.
# RORγt ThermoFluor® Assay Construct
# Protein and compound solutions are dispensed into black 384-well polypropylene PCR microplates (Abgene) and overlayed with silicone oil (1 μL, Fluka, type DC 200) to prevent evaporation.
# Bar-coded assay plates are robotically loaded onto a thermostatically controlled PCR-type thermal block and then heated at a typical ramp-rate of 1° C./min for all experiments. Fluorescence was measured by continuous illumination with UV light (Hamamatsu LC6) supplied via fiber optic and filtered through a band-pass filter (380-400 nm; >6 OD cutoff). Fluorescence emission of the entire 384-well plate was detected by measuring light intensity using a CCD camera (Sensys, Roper Scientific) filtered to detect 500±25 nm, resulting in simultaneous and independent readings of all 384 wells. Images were collected at each temperature, and the sum of the pixel intensity in a given area of the assay plate was recorded versus temperature. Reference wells contained RORγt without compounds, and the assay conditions were as follows: • 0.065 mg/mL RORγt • 60 μM 1,8-ANS • 100 mM Hepes, pH 7.0 • 10 mM NaCl • 2.5 mM GSH • 0.002% Tween-20
# Project compounds were arranged in a pre-dosed mother plate (Greiner Bio-one) wherein compounds are serially diluted in 100% DMSO by 1:2 from a high concentration of 10 mM over 12 columns within a series (column 12 is a reference well containing DMSO, no compound). The compounds were robotically dispensed directly into assay plates (1×=46 nL) using a Hummingbird capillary liquid handling instrument (Digilab). Following compound dispense, protein and dye in buffer was added to achieve the final assay volume of 3 μL, followed by 1 μL of silicone oil.
Structure (SMILES),"RORγt reporter Assay, % inhibition @ 6 μM (human RORγt LBD)",IC50 (human RORγt LBD),Kd [1],inhibition at 6 µM (human RORγt LBD)
"COc1nc2c(F)cc(C(O)(c3ccc(C(F)(F)F)nc3)c3cncn3C)cc2c(Cl)c1Cc1ccc(-n2cccn2)cc1 (single isomer, unassigned) [Example 58C, (3-(4-(1H-pyrazol-1-yl)benzyl)-4-chloro-8-fluoro-2-methoxyquinolin-6-yl)(1-methyl-1H-imidazol-5-yl)(6-(trifluoromethyl)pyridin-3-yl)methanol]",109%,0.66 µM,0.27 µM,–
"CCOc1nc2ccc(C(O)(c3ccc(Cl)cc3)c3cncn3C)cc2c(Cl)c1Cc1ccccc1 (stereo not drawn) [Example 14, (3-Benzyl-4-chloro-2-ethoxyquinolin-6-yl)(4-chlorophenyl)(1-methyl-1H-imidazol-5-yl)methanol.TFA]",–,0.56 µM,0.091 µM,74%
"CNC(=O)c1nc2ccc(C(O)(c3ccc(F)cc3)c3cncn3C)cc2c(C(F)(F)F)c1Cc1ccccc1 (stereo not drawn) [Example 51, 3-Benzyl-6-((4-fluorophenyl)(hydroxy)(1-methyl-1H-imidazol-5-yl)methyl)-N-methyl-4-(trifluoromethyl)quinoline-2-carboxamide]",–,1.9 µM,1.1 µM,98%
"COc1nc2ccc(C(O)(c3ccc(C(F)(F)F)nc3)c3cncn3C)cc2c(Cl)c1Cc1ccc(C(F)(F)F)nc1 (stereo not drawn) [Example 94A, (4-Chloro-2-methoxy-3-((6-(trifluoromethyl)pyridin-3-yl)methyl)quinolin-6-yl)(1-methyl-1H-imidazol-5-yl)(6-(trifluoromethyl)pyridin-3-yl)methanol]",–,0.069 µM,0.012 µM,98%
"COc1nc2c(C)cc(C(O)(c3ccc(Cl)cc3)c3cncn3C)cc2c(Cl)c1Cc1ccc(-n2cccn2)cc1 (single isomer, unassigned) [Example 28B, (3-(4-(1H-pyrazol-1-yl)benzyl)-4-chloro-2-methoxy-8-methylquinolin-6-yl)(4-chlorophenyl)(1-methyl-1H-imidazol-5-yl)methanol]",–,1.1 µM,1.6 µM,90%
"CON(C)c1nc2ccc(C(O)(c3ccc(C(F)(F)F)nc3)c3cncn3C)cc2c(Cl)c1Cc1ccc(-n2cccn2)cc1 (stereo not drawn) [Example 67A, (3-(4-(1H-Pyrazol-1-yl)benzyl)-4-chloro-2-(methoxy(methyl)amino)quinolin-6-yl)(1-methyl-1H-imidazol-5-yl)(6-(trifluoromethyl)pyridin-3-yl)methanol TFA?]",–,0.044 µM,0.018 µM,115%
"Cn1cncc1C(O)(c1ccc(C(F)(F)F)nc1)c1ccc2nc(C#N)c(Cc3ccc(-n4cccn4)cc3)cc2c1 (single isomer, unassigned) [Example 70B, 3-(4-(1H-Pyrazol-1-yl)benzyl)-6-(hydroxy(1-methyl-1H-imidazol-5-yl)(6-(trifluoromethyl)pyridin-3-yl)methyl)quinoline-2-carbonitrile]",–,1 µM,1.1 µM,101%
"COc1ccc(C(O)(c2ccc3nc(Cl)c(Cc4ccccc4)c(Cl)c3c2)c2cncs2)cn1 (stereo not drawn) [Example 18, (3-Benzyl-2,4-dichloroquinolin-6-yl)(6-methoxypyridin-3-yl)(thiazol-5-yl)methanol]",–,> 6 µM,0.0045 µM,41%
"Cn1cncc1C(O)(c1ccc(Cl)cc1)c1ccc2nc(O)c(Cc3ccc(-n4cccn4)cc3)c(Cl)c2c1 (stereo not drawn) [Example 55A, 3-(4-(1H-Pyrazol-1-yl)benzyl)-4-chloro-6-((4-chlorophenyl)(hydroxy)(1-methyl-1H-imidazol-5-yl)methyl)quinolin-2-ol]",–,1.7 µM,7.6 µM,94%
"COc1nc2c(OC)cc(C(O)(c3ccc(C(F)(F)F)nc3)c3cncn3C)cc2c(Cl)c1Cc1ccc(-n2cccn2)cc1 (single isomer, unassigned) [Example 59C, (3-(4-(1H-pyrazol-1-yl)benzyl)-4-chloro-2,8-dimethoxyquinolin-6-yl)(1-methyl-1H-imidazol-5-yl)(6-(trifluoromethyl)pyridin-3-yl)methanol]",108%,0.57 µM,0.22 µM,–
